Values of other authors as cited in PMC4411882, “Developmental Potential for Endomorphin Opioidmimetic Drugs” (International Journal of Medicinal Chemistry, 2012).
pIC50, pKi: −log10 of the molar value. Like-named read-outs stand apart in the source and are kept apart here. Where a SMILES comes first, the peptide text is derived from it. [ ]: non-standard residue; d: D form. Dmt = Cc1cc(O)cc(C)c1C[CH](N)C(=O)O

Columns and labels:
[1] = target: T1, μ-opioid receptor (GPI) (Cavia porcellus, UniProt P97266); parameters: species or system guinea pig ileum
T1 construct: gene OPRM1; guinea pig ileum (GPI) bioassay
T1 sequence (P97266 whole entry): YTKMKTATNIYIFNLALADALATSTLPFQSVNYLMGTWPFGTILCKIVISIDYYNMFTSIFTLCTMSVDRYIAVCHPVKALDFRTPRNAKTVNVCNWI
Source text: (§1) Therefore, we substituted hydrophobic groups in lieu of the phenethyl group to develop the class of H-Dmt-Pro-Phe-NH-X ligands (Figure 1).

[2] = target: T2, δ-opioid receptor (MVD) (Mus musculus, UniProt P32300); parameters: species or system mouse vas deferens
T2 construct: gene Oprd1; mouse vas deferens (MVD) bioassay
T2 sequence (P32300 whole entry): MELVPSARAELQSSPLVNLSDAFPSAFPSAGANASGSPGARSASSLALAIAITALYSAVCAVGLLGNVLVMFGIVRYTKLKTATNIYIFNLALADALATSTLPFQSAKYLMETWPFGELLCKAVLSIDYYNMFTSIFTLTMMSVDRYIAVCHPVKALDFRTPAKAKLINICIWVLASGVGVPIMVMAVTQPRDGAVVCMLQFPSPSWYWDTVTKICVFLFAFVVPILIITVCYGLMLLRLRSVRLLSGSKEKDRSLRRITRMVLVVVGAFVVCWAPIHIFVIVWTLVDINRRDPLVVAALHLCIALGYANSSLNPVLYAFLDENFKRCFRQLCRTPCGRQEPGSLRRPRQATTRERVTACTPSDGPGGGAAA
Source text: as §1

[3] = target: T3, μ-opioid receptor (Rattus norvegicus, UniProt P33535); parameters: gene Oprm1; rat brain P2 synaptosomal preparations; species or system rat brain P2 synaptosomal preparations; conditions: read-out: Kiμ
T3 sequence (P33535 whole entry): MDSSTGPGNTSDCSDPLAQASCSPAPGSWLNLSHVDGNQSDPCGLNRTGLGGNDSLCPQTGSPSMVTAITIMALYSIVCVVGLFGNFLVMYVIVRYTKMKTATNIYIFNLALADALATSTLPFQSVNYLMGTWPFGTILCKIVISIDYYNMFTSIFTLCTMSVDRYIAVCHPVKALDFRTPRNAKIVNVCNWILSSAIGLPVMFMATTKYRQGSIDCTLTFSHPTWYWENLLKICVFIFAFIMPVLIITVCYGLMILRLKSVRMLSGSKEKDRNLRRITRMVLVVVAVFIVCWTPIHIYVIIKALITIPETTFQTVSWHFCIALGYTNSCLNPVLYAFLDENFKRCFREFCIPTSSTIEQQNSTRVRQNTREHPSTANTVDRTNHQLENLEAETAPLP

[4] = target: T4, δ-opioid receptor (Rattus norvegicus, UniProt P33533); parameters: gene Oprd1; rat brain P2 synaptosomal preparations; species or system rat brain P2 synaptosomal preparations; conditions: read-out: Kiδ
T4 sequence (P33533 whole entry): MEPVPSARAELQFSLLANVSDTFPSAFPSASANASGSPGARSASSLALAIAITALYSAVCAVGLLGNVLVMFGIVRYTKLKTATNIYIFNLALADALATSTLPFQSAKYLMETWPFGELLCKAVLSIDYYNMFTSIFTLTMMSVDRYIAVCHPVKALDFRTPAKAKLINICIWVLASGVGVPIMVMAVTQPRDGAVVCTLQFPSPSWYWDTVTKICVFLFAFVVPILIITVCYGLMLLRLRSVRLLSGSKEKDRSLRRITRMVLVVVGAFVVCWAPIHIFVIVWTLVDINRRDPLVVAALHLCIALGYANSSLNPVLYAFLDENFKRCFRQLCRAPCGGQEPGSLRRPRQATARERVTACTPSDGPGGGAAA

[5] = target: T3, μ-opioid receptor; parameters: gene Oprm1; conditions: read-out: Kiμ
[6] = target: T4, δ-opioid receptor; parameters: gene Oprd1; conditions: read-out: Kiδ

| Compound | pIC50 [1] | pIC50 [2] | pKi [3] | pKi [4] | pKi [5] | pKi [6] |
| --- | --- | --- | --- | --- | --- | --- |
| CCc1cc(O)cc(CC)c1C[C@H](N)C(=O)N1CCC[C@H]1C(=O)N[C@@H](Cc1ccccc1)C(=O)N[C@@H](Cc1ccccc1)C(N)=O [compound 37, H-Det-Pro-Phe-Phe-NH2] | 9.04 | 7.33 | 10.08 | 7.16 |  |  |
| Cc1cc(O)cc(C)c1C[C@H](N)C(=O)NCCNC(=O)[C@@H](N)Cc1c(C)cc(O)cc1C [compound 51, Dmt-NH-(CH2)2-NH-Dmt] | 5.55 | < 5.00 | 8.84 | 6.94 |  |  |
| Cc1cc(O)cc(C)c1C[C@H](N)C(=O)N1CCC[C@H]1C(=O)N[C@@H](Cc1ccccc1)C(=O)Nc1ccc2ncccc2c1 [compound 31, H-Dmt-Pro-Phe-NH-6-Qln] | 8.21 | < 5.00 | 9.66 | 7.33 |  |  |
| Cc1cc(O)cc(C)c1CC(N)C(=O)N1Cc2ccccc2CC1C(=O)NCCCCc1[nH]c(=O)c(CCCNC(=O)C2Cc3ccccc3CN2C(=O)C(N)Cc2c(C)cc(O)cc2C)nc1C (stereo not drawn) [compound 63, 3-[Dmt-Tic-NH(CH2)3]-6-[Dmt-Tic-NH(CH2)4]-5-methyl-2(1H)-pyrazinone] | < 5.00 | < 5.00 | 8.81 | 9.80 |  |  |
| Cc1cc(O)cc(C)c1C[C@H](N)C(=O)N1CCC[C@H]1C(=O)N[C@@H](Cc1c[nH]c2ccccc12)C(=O)N[C@@H](Cc1ccccc1)C(N)=O [compound 19, H-Dmt-Pro-Trp-Phe-NH2, [Dmt^1]EM-1] | 9.57 | < 5.00 | 10.27 | 8.25 |  |  |
| CNC(=O)C(N)Cc1c(C)cc(O)cc1C (stereo not drawn) [H-Dmt-NH-CH3] |  |  |  |  | 8.13 | 6.34 |
| Cc1cc(O)cc(C)c1C[C@H](N)C(=O)N1CCC[C@H]1C(=O)N[C@@H](Cc1ccccc1)C(=O)N[C@@H](Cc1ccccc1)C(N)=O [compound 20, H-Dmt-Pro-Phe-Phe-NH2, [Dmt^1]EM-2] | 10.15 | 8.73 | 9.82 | 7.55 |  |  |
| CCc1cc(O)cc(C)c1C[C@H](N)C(=O)N1CCC[C@H]1C(=O)N[C@@H](Cc1ccccc1)C(=O)N[C@@H](Cc1ccccc1)C(N)=O [compound 35, H-Emt-Pro-Phe-Phe-NH2] | 9.21 | 8.97 | 10.20 | 7.25 |  |  |
| Cc1cc(C)cc(C[C@H](NC(=O)[C@@H]2CCCN2C(=O)[C@@H](N)Cc2c(C)cc(O)cc2C)C(=O)N[C@@H](Cc2ccccc2)C(N)=O)c1 [compound 41, H-Dmt-Pro-^3,5Dmp-Phe-NH2] | 7.84 | < 5.00 | 9.96 | 7.94 |  |  |
| Cc1cc(O)cc(C)c1CC(N)C(=O)NCc1[nH]c(=O)c(CNC(=O)C(N)Cc2c(C)cc(O)cc2C)nc1C (stereo not drawn) [compound 55, 3,6-bis[Dmt-NH-CH2]-5-methyl-2(1H)-pyrazinone] | 5.77 | < 5.00 | 8.94 | 7.80 |  |  |
| Cc1cc(O)cc(C)c1C[C@H](N)C(=O)N1CCC[C@H]1C(=O)N[C@@H](Cc1ccccc1)C(=O)Nc1cccc2ncccc12 [compound 30, H-Dmt-Pro-Phe-NH-5-Qln] | 9.59 | 9.21 | 9.96 | 7.52 |  |  |
| Cc1cc(O)cc(C)c1CC(N)C(=O)N1Cc2ccccc2CC1C(=O)NCCCCc1[nH]c(=O)c(CCNC(=O)C2Cc3ccccc3CN2C(=O)C(N)Cc2c(C)cc(O)cc2C)nc1C (stereo not drawn) [compound 65, 3-[Dmt-Tic-NH(CH2)2]-6-[Dmt-Tic-NH(CH2)4]-5-methyl-2(1H)-pyrazinone] | < 5.00 | < 5.00 | 8.86 | 9.97 |  |  |
| Cc1cc(O)cc(C)c1C[C@H](N)C(=O)N1Cc2ccccc2C[C@H]1C(=O)NCCCCCCCCCCNC(=O)[C@@H]1Cc2ccccc2CN1C(=O)[C@@H](N)Cc1c(C)cc(O)cc1C [compound 68, bis[Dmt-Tic-NH]decane] | 5.27 | < 5.00 | 8.31 | 8.82 |  |  |
| H-Tmt-Pro-Phe-Phe-NH2 [compound 39] | 8.64 | 7.33 | 9.95 | 6.23 |  |  |
| Cc1cc(O)cc(C)c1CC(C(=O)N1Cc2ccccc2CC1C(=O)NCCCc1[nH]c(=O)c(CCCNC(=O)C2Cc3ccccc3CN2C(=O)C(Cc2c(C)cc(O)cc2C)N(C)C)nc1C)N(C)C (stereo not drawn) [compound 70, 3,6-bis[N,N-dimethyl-Dmt-Tic-NH-propyl]-5-methyl-2(1H)-pyrazinone] | < 5.00 | < 5.00 | 8.77 | 9.54 |  |  |
| Cc1cccc(C)c1C[C@H](NC(=O)[C@@H]1CCCN1C(=O)[C@@H](N)Cc1c(C)cc(O)cc1C)C(=O)N[C@@H](Cc1ccccc1)C(N)=O [compound 42, H-Dmt-Pro-Dmp-Phe-NH2] | 9.92 | < 5.00 | 10.16 | 8.64 |  |  |
| Cc1cc(O)cc(C)c1C[C@H](N)C(=O)N1CCC[C@H]1C(=O)N[C@@H](Cc1ccccc1)C(=O)Nc1ccccn1 [compound 27, H-Dmt-Pro-Phe-NH-2-Pyr] | 7.82 | < 5.00 | 9.89 | 6.80 |  |  |
| Cc1cc(O)cc(C)c1CC(N)C(=O)N1CCCC1C(=O)NC(Cc1ccccc1)C(N)=O (stereo not drawn) [compound 21, H-Dmt-Pro-Phe-NH2] (H-[Dmt]-Pro-Phe-NH2; configuration not given here) | 8.63 | 6.95 | 9.92 | 7.27 |  |  |
| Cc1cc(O)cc(C)c1CC(N)C(=O)N1Cc2ccccc2CC1C(=O)NCCCc1[nH]c(=O)c(CCCNC(=O)C2Cc3ccccc3CN2C(=O)C(N)Cc2c(C)cc(O)cc2C)nc1C (stereo not drawn) [compound 61, 3,6-bis[Dmt-Tic-NH(CH2)3]-5-methyl-2(1H)-pyrazinone] | 5.15 | < 5.00 | 8.51 | 9.81 |  |  |
| Cc1cc(O)cc(C)c1CC(N)C(=O)N1Cc2ccccc2CC1C(=O)NCc1[nH]c(=O)c(CNC(=O)C2Cc3ccccc3CN2C(=O)C(N)Cc2c(C)cc(O)cc2C)nc1C (stereo not drawn) [compound 59, 3,6-bis[Dmt-Tic-NH-CH2]-5-methyl-2(1H)-pyrazinone] | < 5.00 | < 5.00 | 8.42 | 9.79 |  |  |
